According to BigSolDB 2.1:

Cc1cccc(C(=O)O)c1N
solubility (mole fraction)
Conditions	278.15 K	283.15 K	288.15 K	293.15 K	298.15 K	303.15 K	308.15 K	313.15 K	318.15 K
in 1,4-dioxane	–	–	0.108	0.117	0.127	0.137	0.148	0.159	0.171
in 2-butanone	0.0646	0.0721	0.0792	0.0872	0.0953	0.104	0.114	0.124	0.134
in acetone	0.0745	0.0829	0.0918	0.101	0.111	0.121	0.132	0.143	0.154
in acetonitrile	0.0227	0.0275	0.0329	0.039	0.0461	0.054	0.0628	0.0727	0.0834
in cyclohexane	–	8.89e-05	0.000115	0.000153	0.000204	0.00027	0.00035	0.000454	0.000578
in ethanol	0.0176	0.0208	0.0244	0.0286	0.0333	0.0385	0.0444	0.0509	0.0582
in ethyl acetate	0.0294	0.0345	0.0405	0.0469	0.054	0.0619	0.0704	0.0803	0.0907
in isopropanol	0.00876	0.0109	0.0138	0.017	0.0208	0.0253	0.0303	0.036	0.0427
in methanol	0.02	0.0235	0.0273	0.0317	0.0367	0.0423	0.0483	0.055	0.0624
in n-butanol	0.0117	0.0144	0.0176	0.0212	0.0254	0.0302	0.0357	0.0422	0.0498
in n-propanol	0.0151	0.0178	0.0212	0.0251	0.0293	0.0344	0.04	0.046	0.0532
in toluene	0.0011	0.00145	0.00184	0.00235	0.00298	0.00382	0.0049	0.00619	0.00797
